Measured values published in BindingDB's records for patent US9796704 (SYMPHONY EVOLUTION, INC., 2017).

What was measured:
Assay in all cases: AlphaScreen Assay
Ephrin type-A receptor 2 = Ephrin type-A receptor 2 (Homo sapiens, UniProt P29317)
Procedure: (§1) In AlphaScreen, when the donor and acceptor beads are close in proximity, a series of photochemical events will give rise to a fluorescent signal upon light activation. Here we use biotinylated poly-(Glu, Tyr) 4:1 as the kinase substrate, streptavidin-coated donor beads and anti-phosphortyrosine antibody PY100-coated acceptor beads. […] Compounds, ATP, biotinylated poly-(Glu, Tyr) and kinases are mixed in a volume of 20 μL for 1 hr at ambient temperature using Greiner 384-well white clear bottom medium binding plates. Then 10 uL solution containing 15-30 mg/mL AlphaScreen beads, 75 mM Hepes, pH 7.4, 300 mM NaCl, 120 mM EDTA, 0.3% BSA and 0.03% Tween-20 is added to each well. After 2-16 hr incubation of the beads, plates are read in a Perkin Elmer AlphaQuest reader (available from PerkinElmer Life and Analytical Sciences, Inc., of Boston Mass.).

Ephrin type-B receptor 4 = target: T1, Ephrin type-B receptor 4 (Homo sapiens, UniProt P54760)
T1 sequence (P54760 whole entry): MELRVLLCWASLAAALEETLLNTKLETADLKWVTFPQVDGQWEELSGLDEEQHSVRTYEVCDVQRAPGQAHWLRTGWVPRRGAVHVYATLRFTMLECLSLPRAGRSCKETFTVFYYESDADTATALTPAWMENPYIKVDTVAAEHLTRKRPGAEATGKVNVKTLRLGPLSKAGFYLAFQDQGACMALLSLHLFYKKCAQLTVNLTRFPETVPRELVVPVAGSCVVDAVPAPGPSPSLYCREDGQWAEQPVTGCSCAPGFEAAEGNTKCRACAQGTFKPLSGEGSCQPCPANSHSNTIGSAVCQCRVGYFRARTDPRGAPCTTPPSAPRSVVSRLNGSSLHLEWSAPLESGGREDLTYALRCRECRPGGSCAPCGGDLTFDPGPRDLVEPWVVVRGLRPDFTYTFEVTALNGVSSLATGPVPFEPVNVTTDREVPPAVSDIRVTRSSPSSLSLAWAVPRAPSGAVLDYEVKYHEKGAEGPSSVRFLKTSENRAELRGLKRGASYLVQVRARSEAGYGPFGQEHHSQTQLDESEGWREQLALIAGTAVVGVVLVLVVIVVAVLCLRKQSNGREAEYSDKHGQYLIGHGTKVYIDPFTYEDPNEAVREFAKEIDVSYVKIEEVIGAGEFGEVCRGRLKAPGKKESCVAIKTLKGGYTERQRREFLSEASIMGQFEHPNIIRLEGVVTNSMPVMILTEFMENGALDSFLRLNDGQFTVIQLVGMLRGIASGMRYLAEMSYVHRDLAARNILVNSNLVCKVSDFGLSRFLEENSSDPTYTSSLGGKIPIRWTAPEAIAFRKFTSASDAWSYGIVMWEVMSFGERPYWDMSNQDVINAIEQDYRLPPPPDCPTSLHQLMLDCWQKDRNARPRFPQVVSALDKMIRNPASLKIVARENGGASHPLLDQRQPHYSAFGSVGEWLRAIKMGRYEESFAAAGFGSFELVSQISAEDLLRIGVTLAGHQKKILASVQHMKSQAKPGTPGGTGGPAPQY
Procedure: as §1

[1] = target: Receptor tyrosine-protein kinase erbB-2 (Homo sapiens, UniProt P04626)
Sequence of Receptor tyrosine-protein kinase erbB-2 (P04626 whole entry): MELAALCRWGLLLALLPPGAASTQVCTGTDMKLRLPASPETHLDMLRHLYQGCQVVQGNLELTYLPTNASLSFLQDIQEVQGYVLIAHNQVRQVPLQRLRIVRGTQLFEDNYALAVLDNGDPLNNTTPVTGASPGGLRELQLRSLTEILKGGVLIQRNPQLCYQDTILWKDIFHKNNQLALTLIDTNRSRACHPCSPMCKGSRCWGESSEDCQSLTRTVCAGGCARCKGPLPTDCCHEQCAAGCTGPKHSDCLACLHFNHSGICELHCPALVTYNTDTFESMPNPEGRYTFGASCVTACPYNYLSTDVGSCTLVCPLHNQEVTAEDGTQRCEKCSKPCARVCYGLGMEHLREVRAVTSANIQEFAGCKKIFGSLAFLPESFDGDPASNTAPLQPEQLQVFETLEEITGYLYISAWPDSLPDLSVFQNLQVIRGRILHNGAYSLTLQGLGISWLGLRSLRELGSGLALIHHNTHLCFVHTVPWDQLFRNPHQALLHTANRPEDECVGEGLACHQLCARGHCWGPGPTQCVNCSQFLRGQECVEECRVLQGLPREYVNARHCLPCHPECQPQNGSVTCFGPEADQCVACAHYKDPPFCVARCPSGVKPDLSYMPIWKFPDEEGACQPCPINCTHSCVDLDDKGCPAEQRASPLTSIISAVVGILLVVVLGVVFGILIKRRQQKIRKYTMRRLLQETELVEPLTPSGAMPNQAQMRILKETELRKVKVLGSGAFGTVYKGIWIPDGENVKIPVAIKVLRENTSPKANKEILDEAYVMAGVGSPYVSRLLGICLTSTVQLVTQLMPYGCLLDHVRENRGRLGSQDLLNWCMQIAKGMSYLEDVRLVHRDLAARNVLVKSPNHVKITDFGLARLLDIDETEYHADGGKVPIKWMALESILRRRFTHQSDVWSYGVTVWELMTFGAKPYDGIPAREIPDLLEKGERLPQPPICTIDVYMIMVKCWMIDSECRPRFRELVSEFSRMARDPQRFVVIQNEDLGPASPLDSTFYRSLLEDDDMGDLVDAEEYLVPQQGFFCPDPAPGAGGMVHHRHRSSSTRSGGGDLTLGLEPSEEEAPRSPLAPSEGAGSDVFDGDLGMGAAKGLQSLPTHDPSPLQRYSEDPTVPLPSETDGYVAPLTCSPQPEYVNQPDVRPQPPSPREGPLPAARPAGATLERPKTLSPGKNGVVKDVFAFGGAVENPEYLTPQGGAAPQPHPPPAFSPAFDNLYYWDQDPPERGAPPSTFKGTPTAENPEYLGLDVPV
Procedure: as §1

[2] = target: Vascular endothelial growth factor receptor 1 (Homo sapiens, UniProt P17948)
Sequence of Vascular endothelial growth factor receptor 1 (P17948 whole entry): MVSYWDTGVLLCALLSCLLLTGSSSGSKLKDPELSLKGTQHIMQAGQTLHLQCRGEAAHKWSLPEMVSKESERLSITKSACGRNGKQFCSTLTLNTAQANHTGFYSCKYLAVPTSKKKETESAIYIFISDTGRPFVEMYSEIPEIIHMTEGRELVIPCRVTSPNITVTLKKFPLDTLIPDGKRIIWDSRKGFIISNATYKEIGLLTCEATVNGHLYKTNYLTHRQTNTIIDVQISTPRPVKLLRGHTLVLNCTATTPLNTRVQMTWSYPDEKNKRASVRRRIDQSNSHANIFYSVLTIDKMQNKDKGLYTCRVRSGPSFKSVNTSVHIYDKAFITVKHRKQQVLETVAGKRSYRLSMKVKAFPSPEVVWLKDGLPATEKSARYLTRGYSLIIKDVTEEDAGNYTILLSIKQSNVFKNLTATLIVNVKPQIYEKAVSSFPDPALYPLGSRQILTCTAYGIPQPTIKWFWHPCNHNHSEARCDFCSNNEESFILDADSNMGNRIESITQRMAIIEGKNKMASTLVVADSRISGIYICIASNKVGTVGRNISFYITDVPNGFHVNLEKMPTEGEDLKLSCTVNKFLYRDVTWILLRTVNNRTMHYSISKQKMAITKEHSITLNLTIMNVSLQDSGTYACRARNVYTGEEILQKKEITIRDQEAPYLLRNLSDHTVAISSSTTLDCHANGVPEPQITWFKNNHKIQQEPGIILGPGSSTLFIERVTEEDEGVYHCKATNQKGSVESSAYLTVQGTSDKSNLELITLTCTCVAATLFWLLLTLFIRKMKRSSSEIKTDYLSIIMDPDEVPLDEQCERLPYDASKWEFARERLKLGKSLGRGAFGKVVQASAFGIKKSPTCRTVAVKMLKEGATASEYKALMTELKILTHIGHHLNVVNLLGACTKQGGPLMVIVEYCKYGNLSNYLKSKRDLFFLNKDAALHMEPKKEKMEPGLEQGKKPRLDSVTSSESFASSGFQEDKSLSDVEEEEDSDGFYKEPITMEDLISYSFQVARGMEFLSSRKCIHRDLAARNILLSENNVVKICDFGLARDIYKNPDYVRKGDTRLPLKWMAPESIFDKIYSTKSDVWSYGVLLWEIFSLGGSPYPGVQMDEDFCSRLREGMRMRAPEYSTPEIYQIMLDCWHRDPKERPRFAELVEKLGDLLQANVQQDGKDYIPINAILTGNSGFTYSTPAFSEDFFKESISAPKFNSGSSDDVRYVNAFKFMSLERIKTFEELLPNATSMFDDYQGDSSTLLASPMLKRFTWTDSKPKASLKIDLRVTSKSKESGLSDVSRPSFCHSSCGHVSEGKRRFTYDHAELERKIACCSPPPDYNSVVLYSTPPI
Procedure: as §1

[3] = target: Vascular endothelial growth factor receptor 2 (Homo sapiens, UniProt P35968)
Sequence of Vascular endothelial growth factor receptor 2 (P35968 whole entry): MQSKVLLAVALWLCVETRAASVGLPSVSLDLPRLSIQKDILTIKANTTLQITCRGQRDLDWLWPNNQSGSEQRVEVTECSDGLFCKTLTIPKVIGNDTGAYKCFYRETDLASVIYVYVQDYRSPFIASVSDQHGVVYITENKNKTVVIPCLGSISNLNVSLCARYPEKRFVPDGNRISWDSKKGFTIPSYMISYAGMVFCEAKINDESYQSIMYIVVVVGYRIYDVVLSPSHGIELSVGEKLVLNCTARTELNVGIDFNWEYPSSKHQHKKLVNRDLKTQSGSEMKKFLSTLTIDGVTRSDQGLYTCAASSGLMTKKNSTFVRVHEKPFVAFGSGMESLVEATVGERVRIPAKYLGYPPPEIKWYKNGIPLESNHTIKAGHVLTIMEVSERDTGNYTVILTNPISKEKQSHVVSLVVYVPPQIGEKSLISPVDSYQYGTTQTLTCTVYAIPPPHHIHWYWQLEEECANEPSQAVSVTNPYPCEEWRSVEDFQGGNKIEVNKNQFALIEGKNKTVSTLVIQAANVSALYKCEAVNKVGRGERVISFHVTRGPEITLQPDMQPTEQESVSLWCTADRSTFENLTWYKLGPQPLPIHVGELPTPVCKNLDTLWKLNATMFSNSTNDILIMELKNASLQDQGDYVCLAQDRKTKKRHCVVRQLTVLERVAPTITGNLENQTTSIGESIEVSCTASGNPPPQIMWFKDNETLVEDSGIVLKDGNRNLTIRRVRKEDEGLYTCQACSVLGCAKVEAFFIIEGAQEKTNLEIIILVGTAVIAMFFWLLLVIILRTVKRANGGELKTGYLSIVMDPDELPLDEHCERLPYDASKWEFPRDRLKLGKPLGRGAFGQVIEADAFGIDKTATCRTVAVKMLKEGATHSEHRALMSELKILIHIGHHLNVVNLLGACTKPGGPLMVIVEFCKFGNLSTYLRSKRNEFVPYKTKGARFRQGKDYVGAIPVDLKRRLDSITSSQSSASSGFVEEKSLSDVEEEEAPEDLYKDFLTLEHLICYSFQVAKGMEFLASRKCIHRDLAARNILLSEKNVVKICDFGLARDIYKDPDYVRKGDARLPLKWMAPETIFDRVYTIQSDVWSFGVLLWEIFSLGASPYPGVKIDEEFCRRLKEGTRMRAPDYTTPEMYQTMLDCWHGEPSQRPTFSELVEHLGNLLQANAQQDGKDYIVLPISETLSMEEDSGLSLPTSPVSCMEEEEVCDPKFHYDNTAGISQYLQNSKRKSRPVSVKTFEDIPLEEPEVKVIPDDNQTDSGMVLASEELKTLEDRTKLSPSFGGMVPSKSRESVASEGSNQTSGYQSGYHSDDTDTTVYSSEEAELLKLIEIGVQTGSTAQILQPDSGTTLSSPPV
Procedure: as §1

Sequence of Ephrin type-A receptor 2 (P29317 whole entry): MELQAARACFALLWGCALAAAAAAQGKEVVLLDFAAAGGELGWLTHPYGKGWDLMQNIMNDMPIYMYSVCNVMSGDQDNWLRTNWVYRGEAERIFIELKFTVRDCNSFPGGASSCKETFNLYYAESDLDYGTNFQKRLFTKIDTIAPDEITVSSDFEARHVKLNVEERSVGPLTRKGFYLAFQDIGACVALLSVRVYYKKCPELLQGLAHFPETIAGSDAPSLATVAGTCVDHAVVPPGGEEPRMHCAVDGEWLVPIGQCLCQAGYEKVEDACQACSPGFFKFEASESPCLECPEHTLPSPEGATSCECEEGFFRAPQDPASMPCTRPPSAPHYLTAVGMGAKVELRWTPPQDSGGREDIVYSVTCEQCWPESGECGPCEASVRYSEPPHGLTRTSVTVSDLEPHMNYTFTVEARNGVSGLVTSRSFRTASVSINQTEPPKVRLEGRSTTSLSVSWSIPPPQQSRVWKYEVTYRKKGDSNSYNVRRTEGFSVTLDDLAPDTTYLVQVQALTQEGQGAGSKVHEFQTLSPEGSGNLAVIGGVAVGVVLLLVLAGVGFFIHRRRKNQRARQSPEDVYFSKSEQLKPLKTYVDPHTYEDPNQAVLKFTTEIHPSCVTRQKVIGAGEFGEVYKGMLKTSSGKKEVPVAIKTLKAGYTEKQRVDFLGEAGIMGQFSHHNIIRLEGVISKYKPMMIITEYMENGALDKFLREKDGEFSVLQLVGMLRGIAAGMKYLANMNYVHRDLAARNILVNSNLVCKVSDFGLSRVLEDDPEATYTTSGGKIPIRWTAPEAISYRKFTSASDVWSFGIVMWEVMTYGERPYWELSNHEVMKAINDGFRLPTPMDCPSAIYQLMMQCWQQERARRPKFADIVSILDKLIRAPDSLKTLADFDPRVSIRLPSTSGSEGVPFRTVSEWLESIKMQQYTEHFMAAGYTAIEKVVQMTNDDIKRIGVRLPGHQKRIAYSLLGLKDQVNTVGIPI

With `COc1cc2c(Nc3ccc(Cl)c(Cl)c3F)ncnc2cc1OC[C@@H]1CN2CCC[C@H]2CO1` [US9796704, Entry 36] the IC50 (Ephrin type-A receptor 2) was “in the range around 10.5 µM”, the IC50 (Ephrin type-B receptor 4) was “in the range around 10.5 µM” and the IC50 [1] was “in the range around 10.5 µM”. The IC50 [2] was “in the range around 10.5 µM”.

For `COc1cc2c(Nc3ccc(Br)c(Cl)c3F)ncnc2cc1OC[C@@H]1CN2CCC[C@H]2C(=O)N1` [US9796704, Entry 53], the IC50 (Ephrin type-A receptor 2) was “in the range around 10.5 µM”, the IC50 (Ephrin type-B receptor 4) was “in the range around 0.525 µM” and the IC50 [1] was “in the range around 0.525 µM”. The IC50 [2] was “in the range around 10.5 µM”.

In the case of `COc1cc2c(Nc3ccc(F)c(Cl)c3F)ncnc2cc1OC[C@@H]1CN2CCC[C@H]2CO1` [US9796704, Entry 38], the IC50 (Ephrin type-A receptor 2) is reported as “in the range around 0.525 µM”, the IC50 (Ephrin type-B receptor 4) is reported as “in the range around 0.525 µM” and the IC50 [1] is reported as under 0.05 µM. The IC50 [2] was “in the range around 10.5 µM” and the IC50 [3] was under 0.05 µM.

In the case of `COc1cc2c(Nc3ccc(Cl)c(Cl)c3F)ncnc2cc1OC[C@@H]1CN2CCOCC2CO1` (stereo partly drawn) [US9796704, Entry 22], the IC50 (Ephrin type-A receptor 2) is reported as “in the range around 10.5 µM”, the IC50 (Ephrin type-B receptor 4) is reported as “in the range around 10.5 µM” and the IC50 [1] is reported as “in the range around 0.525 µM”. The IC50 [2] was “in the range around 0.525 µM” and the IC50 [3] was “in the range around 10.5 µM”.
